From patent publication US9399028B2, “Treatment of drug resistant cancer” (ROCKEFELLER UNIVERSITY (THE), priority 2012, dated 2016)

Tested on: B16F10 parental and DTIC-resistant cells
Test: In vitro cell growth in response to dacarbazine
Format: cell-based, mouse
Settings: high-dose DTIC treatment
Text: FIG. 31A-I. Activation of LXRβ Suppresses the In Vivo Growth of Melanoma Lines Resistant to Dacarbazine and Vemurafenib. (FIG. 31A) In vitro cell growth by 2.5×10^4 B16F10 parental cells and in vitro-derived B16F10 DTIC-resistant cells in response to varying doses of dacarbazine (DTIC) added to the cell media for 4 days. n=3. (FIG. 31B-FIG. 31D) Tumor growth by 5×10^4 DTIC-sensitive B16F10 parental cells (FIG. 31B) or 5×10^4 DTIC-resistant B16F10 cells (FIG. 31C) subcutaneously injected into C57BL/6-WT mice. Following tumor growth to 5-10 mm3 in volume, mice were treated with dacarbazine (50 mg/kg, i.p., daily) or a control vehicle and randomly assigned to regular chow or a chow supplemented with GW3965 (100 mg/kg). Final day tumor volume measurements are shown in (FIG. 31D). n=8-16 (FIG. 31B), 7-8 (FIG. 31C). (FIG. 31E-FIG. 31F) Tumor growth by DTIC-sensitive MeWo parental cells and in vivo-derived DTIC-resistant MeWo human melanoma cells in response to DTIC or GW3965 treatments. 5×10^5 cells were subcutaneously injected into NOD Scid gamma mice. After formation of tumors measuring 5-10 mm3 in volume, mice were blindedly assigned to a control treatment, a DTIC treatment (50 mg/kg, i.p., administered daily in 5-day cycles with 2-day off-treatment intervals), or a GW3965-supplemented diet treatment (100 mg/kg). Final day tumor measurements are show in (FIG. 31F). n=6-8. […]

`CN(C)/N=N/c1[nH]cnc1C(N)=O` [dacarbazine] was tested, and the “increase in viability of DTIC-resistant cells compared to parental B16F10” value was 7 fold.
